The values below come from ChEMBL document CHEMBL1212789, “Activity and toxicity of farnesol towards Candida albicans are dependent on growth conditions” (Antimicrob Agents Chemother, 2010).

What all share (type): functional, organism-based
Assay [1] deals with Candida albicans. In words: Antifungal activity against Candida albicans in YPD medium up to 300 uM after 24 hrs by methylene blue assay.
The subject of assay [2] is Candida albicans. In words: Antifungal activity against Candida albicans in YPD medium at => 300 uM after 24 hrs by methylene blue assay.
The subject of assay [3] is Candida albicans. The experiment in a line: Antifungal activity against stationary phase culture of Candida albicans in GPP medium up to 300 uM after 24 hrs by methylene blue assay.
Assay [4] has as its system Candida albicans. The experiment in a line: Antifungal activity against log phase culture of Candida albicans in GPP medium at 40 uM after 24 hrs by methylene blue assay.
Assay [5] has as its system Candida albicans. In words: Antifungal activity against log phase culture of Candida albicans in GPP medium at 100 uM after 1 hr by methylene blue assay.
For assay [6], the system named is Candida albicans. The experiment in a line: Antifungal activity against log phase culture of Candida albicans in GPP medium at 300 uM after 4 hrs by methylene blue assay.
The test system of assay [7] is Candida albicans. The experiment in a line: Antifungal activity against exponential phase culture of Candida albicans in GPP medium at 40 uM after 24 hrs by methylene blue assay.
Assay [8] deals with Candida albicans. In words: Antifungal activity against exponential phase culture of Candida albicans in GPP medium at 10 to 300 uM at 25 degC after 24 hrs by methylene blue assay.
The subject of assay [9] is Candida albicans. The experiment in a line: Antifungal activity against exponential phase culture of Candida albicans in GPP medium at 10 to 300 uM at 30 degC after 24 hrs by methylene blue assay.
The subject of assay [10] is Candida albicans. In words: Antifungal activity against exponential phase culture of Candida albicans in GPP medium at 10 to 300 uM at 37 degC after 24 hrs by methylene blue assay.
Assay [11] relates to Candida albicans. In words: Antifungal activity against exponential phase culture of Candida albicans in YPD medium at 10 to 300 uM at 25 degC after 24 hrs by methylene blue assay.
In assay [12] the test system is Candida albicans. The experiment in a line: Antifungal activity against exponential phase culture of Candida albicans in YPD medium at 10 to 300 uM at 30 degC after 24 hrs by methylene blue assay.
The subject of assay [13] is Candida albicans. In words: Antifungal activity against exponential phase culture of Candida albicans in YPD medium at 10 to 300 uM at 37 degC after 24 hrs by methylene blue assay.
Assay [14] relates to Candida albicans. In words: Antifungal activity against stationary phase culture of Candida albicans in GPP medium at 10 to 300 uM at 25 degC after 24 hrs by methylene blue assay.
In assay [15] the test system is Candida albicans. In words: Antifungal activity against stationary phase culture of Candida albicans in GPP medium at 10 to 300 uM at 30 degC after 24 hrs by methylene blue assay.
For assay [16], the system named is Candida albicans. The experiment in a line: Antifungal activity against stationary phase culture of Candida albicans in GPP medium at 10 to 300 uM at 37 degC after 24 hrs by methylene blue assay.
For assay [17], the system named is Candida albicans. The experiment in a line: Antifungal activity against stationary phase culture of Candida albicans in YPD medium at 10 to 300 uM at 25 degC after 24 hrs by methylene blue assay.
The subject of assay [18] is Candida albicans. The experiment in a line: Antifungal activity against stationary phase culture of Candida albicans in YPD medium at 10 to 300 uM at 30 degC after 24 hrs by methylene blue assay.
Assay [19] relates to Candida albicans. In words: Antifungal activity against stationary phase culture of Candida albicans in YPD medium at 10 to 300 uM at 37 degC after 24 hrs by methylene blue assay.
Assay [20] concerns Candida albicans. The experiment in a line: Antifungal activity against exponential phase culture of Candida albicans at 10 to 300 uM treated directly to growing cultures measured after 4 hrs by methylene blue assay.
Assay [21] has as its system Candida albicans. The experiment in a line: Antifungal activity against log phase culture of Candida albicans at 10 to 300 uM treated directly to growing cultures measured after 4 hrs by methylene blue assay.

Activity calls are given as the source filed them. The rule behind the calls is not given here.

`CC(C)=CCC/C(C)=C/CC/C(C)=C/CO`: the result with Candida albicans [1], in the assay with Candida albicans [3], in the assay on Candida albicans [8], in the assay with Candida albicans [9], with Candida albicans [10] and in the assay on Candida albicans [11] was inactive. Also, the result in the assay with Candida albicans [12], with Candida albicans [13], in the assay on Candida albicans [14], with Candida albicans [15], in the assay on Candida albicans [16] and with Candida albicans [17] was inactive. The result in the assay with Candida albicans [18] and in the assay with Candida albicans [19] was inactive. Besides, the result in the assay with Candida albicans [2], in the assay with Candida albicans [4], with Candida albicans [5], with Candida albicans [6], in the assay with Candida albicans [7] and in the assay with Candida albicans [20] was Active. For the same molecule, in the assay on Candida albicans [21], the outcome was Active.
